Structures are written as SMILES. Where “and” joins values, the source holds several entries; their conditions need not be identical. Equal entries are not always repeated.

Assay [1] has as its target T1, Wee1 (Homo sapiens, UniProt P30291). Description: LanthaScreen FRET-based biochemical binding assay for Wee1. To be noted: LanthaScreen Binding activity assay; average of two replicates ± SD. How it is done: (§1) LanthaScreen™ assays were conducted for Wee1 in a 10-point dose response as performed in the commercial assay service by Life Technologies™. Z′-LYTE™ assays were conducted for PLK1 as performed in the commercial assay service by Life Technologies™ in a 10-point dose response using Km ATP concentrations.
On the technique in general: Time-resolved FRET reads energy transfer from a long-lived donor to a nearby acceptor.

For assay [2], the target named is T1, Wee1. Description: Wee1 degradation immunoblot in MOLT4 cells, 5-hr dose response and time course. Type of assay: cell-based. Also noted: endogenous in cells; host or cells: MOLT4 (wild type; CRBN-/- as control). The conditions noted are these: MOLT4 cells. As to the method: Whole cell lysates for immunoblotting were prepared by pelleting cells from each cell line at 4° C. (300 g) for 5 minutes. The resulting cell pellets were washed 1× with ice-cold PBS and then resuspended in RIPA lysis buffer (Sigma, cat #R0278) supplemented with protease and phosphatase inhibitor tablets (Roche cat #4906845001). Lysates were clarified at 14,000 rpm for 15 minutes at 4° C. prior to quantification by BCA assay (Pierce™, cat #23225). Whole cell lysates were loaded into Bolt 4-12% Bis-Tris Gels (Thermo Fisher, cat #NW04120BOX) and separated by electrophoreses at 95 V for 1.5 hours. The gels were transferred to a nitrocellulose membrane using the iBlot® Gel Transfer at P3 for 7 minutes (Thermo Fisher, cat #IB23001) and then blocked for 1 hour at room temperature in Odyssey® blocking buffer (LICOR® Biosciences, cat #927-50010). Membranes were probed using antibodies against the relevant proteins at 4° C. overnight in 20% Odyssey® Blocking Buffer in 1×TBST. Membranes were then washed three times with 1×TBST (at least 5 minutes per wash) followed by incubation with the IRDye® goat anti-mouse (LICOR®, cat #926-32210) or goat anti-rabbit (LICOR®, cat #926-32211) secondary antibody (diluted 1:10,000) in 20% Odyssey® Blocking Buffer in 1×TBST for 1 hour at room temperature. After three washes with 1×TBST (at least 5 minutes per wash), the immunoblots were visualized using the ODYSSEY® Infrared Imaging System (LICOR®).
MOLT4 cells were plated at 1.5 million cells per well in a 6-well plate, with 3 mL of media per well. Cells were then immediately treated with the indicated concentration of the indicated compound and incubated for the indicated amount of time. Cells were collected by transferring each well to a 15 mL conical, centrifuging (1000 rpm for 3 min), then washing the cell pellet 2× with cold PBS. Each cell pellet was then lysed in 100 μL of RIPA lysis buffer (+protease/phosphatase inhibitors). Samples were normalized and prepped in 4×LDS+10% β-mercaptoethanol and boiled for 5 min at 95° C. Lysates were probed for specified proteins by western blotting using the Bolt® system (Life Technologies™)
To confirm that compound 13-mediated Wee1 degradation is CRBN dependent (FIG. 1D), Wee1 degradation profiles in parental versus CRBN^−/− MOLT4 cells were compared. In parental MOLT4 cells, compound 13 induced potent Wee1 degradation after 5 hours, with maximal degradation observed at 100 nM and a “hook effect” apparent at the top concentration of 10 μM, where compound 13:CRBN and compound 13-Wee1 binary complexes inhibit the formation of a productive ternary complex (Toure and Crews, Angew. Chem. 55:1966-1973 (2016)).
To evaluate the kinetics of Wee1 degradation, a time course study was performed in MOLT4 cells using 100 nM compound 13. Degradation occurred rapidly, with over 50% degradation achieved within 30 min, and complete degradation reached by 3 hr (FIG. 4C).
(Immunoblotting shows a protein as a band on a membrane.)

The target of assay [3] is T1, Wee1. Description: Cellular degradation of Wee1 by immunoblot, 6-hour treatment of MOLT4 cells. It is filed as cell-based. Also noted: endogenous in cells; host or cells: MOLT4 (wild type; CRBN-/- as control). To be noted: MOLT-4, 1 μM, MOLT4 cells, approximated by immunoblot, read-out: Extent of Degradation of Wee1. As to the method:
General Protocol: HT-29, MOLT4 wild type (WT) or CRBN^-/- cells were plated in a 6 well plate and treated for 6 hours with the indicated concentrations of the inventive compounds and control. HT-29 cells were cultured in McCoy's Media supplemented with 10% FBS and 1% Penicillin/Streptomycin. MOLT4 WT and CRBN^-/- cells were cultured in Roswell Park Memorial Institute (RPMI) medium supplemented with 10% FBS and 1% Penicillin/Streptomycin. Mycoplasma testing was performed every month and all lines were negative. Immunoblotting: Cells were washed with phosphate-buffered saline (PBS) and then lysed using radioimmunoprecipitation assay (RIPA) buffer supplemented with protease and phosphatase inhibitor cocktail (Roche) on ice for 15 minutes. The lysates were centrifuged at 14,000 rpm for 15 minutes at 4° C. and protein was quantified by bicinchoninic acid (BCA) assay (PierceTM). Primary antibodies used include: Wee1 ([…]) (Cell Signaling Technology®, 13084S), polo-like kinase 1 (PLK1) (Thermo Fisher Scientific, 37-7000), phosphor-cdc2 (Y15) (10A11) (Cell Signaling Technology®, […]), phospho-histone H3 ([…]) (Cell Signaling Technology®, […]), Ikaros ([…]) (Cell Signaling Technology®, 14859S), Aiolos ([…]) (Cell Signaling Technology®, 15103), casein kinase 1 alpha (Abcam®, 108296), β-actin (Cell Signaling Technology®, 8H10D10). FIG. 2A is an immunoblot showing that compound 13 degraded Wee1 after a 6-hour treatment in MOLT4 cells, and induced the downstream changes expected from Wee1 loss-including a decrease in phosphorylated cyclin-dependent kinase 1 (pCDK1) (Y15) and an increase in pH 3. […] Degradation of Wee1 by compound 13 was rescued in MOLT4 CRBN^-/- cells. MOLT4 WT and CRBN^-/- cells were plated in a 6-well plate at 2.25 million cells per well in 3 mL media (RPMI+10% FBS+1% Penn/Strep). After treatment with the indicated concentrations of candidate compounds, cells were incubated for 6 hours at 37° C. 5% CO2. To harvest, the cells were washed 1× with cold PBS, then collected by centrifugation. Cell pellets were lysed in RIPA buffer with protease and phosphatase inhibitors (Roche). Lysates were clarified by centrifugation, and protein concentrations were normalized using a BCA assay (Thermo ScientificTM). The samples were diluted with 4×LDS+10% β-mercaptoethanol, and were boiled at 95° C. for 5 minutes. Proteins of interest were then assessed by western blotting. […] The experimental protocol was the same as in Example 28.

The target in another assay is PLK1 (Homo sapiens, UniProt P53350). Description: Z′-LYTE kinase activity assay for PLK1. The conditions noted are these: Km ATP, average of two replicates ± SD. Type of assay: biochemical. Also noted: purchased Life Technologies (Invitrogen) commercial assay service. How it is done: as §1
Sequence of PLK1 (P53350 whole entry): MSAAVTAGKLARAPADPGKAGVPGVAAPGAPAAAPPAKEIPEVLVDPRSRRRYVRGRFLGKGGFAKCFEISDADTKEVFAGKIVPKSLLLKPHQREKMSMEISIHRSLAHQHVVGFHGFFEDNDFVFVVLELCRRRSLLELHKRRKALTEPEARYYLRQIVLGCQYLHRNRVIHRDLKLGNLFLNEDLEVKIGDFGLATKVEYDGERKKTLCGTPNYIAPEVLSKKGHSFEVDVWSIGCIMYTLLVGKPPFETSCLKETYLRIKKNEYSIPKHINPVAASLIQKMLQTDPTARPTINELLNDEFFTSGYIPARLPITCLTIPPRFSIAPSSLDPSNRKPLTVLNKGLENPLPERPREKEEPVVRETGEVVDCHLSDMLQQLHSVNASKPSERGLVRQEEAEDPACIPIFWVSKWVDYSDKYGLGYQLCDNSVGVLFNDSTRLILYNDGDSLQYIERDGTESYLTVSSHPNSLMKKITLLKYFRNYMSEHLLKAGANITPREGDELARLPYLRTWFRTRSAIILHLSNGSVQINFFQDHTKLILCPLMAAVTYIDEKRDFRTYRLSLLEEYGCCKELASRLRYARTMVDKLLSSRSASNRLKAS
The selectivity of Wee1 degradation was then assessed by performing multiplexed mass spectrometry (MS)-based proteomics in MOLT4 cells treated with 100 nM of compound 13 for 2 hours (Donovan et al., Elife 7:e38430 (2018)).

The subject of assay [4] is MOLT4 cells (parental, wild type). Description: CellTiter-Glo cell viability, 72 hours. It is filed as cell-based. To be noted: 72-hr. How it is done:
The indicated cell lines were plated in flat bottom 384-well plates (Corning® cat #3570). MOLT4 cells were plated at a density of 3,000 cells per well in 50 μL media, while OVCAR8, COV362, and Kuramochi cells were plated at a density of 750 cells per well in 50 μL media. Cells were treated the next day (except for MOLT4 cells, which were treated the same day as plating) with 0.1 μL of the indicated compounds in a four-fold dilution series using the Janus pinner. Cells were incubated with compounds for 72 hours at 37° C. 5% CO2. Anti-proliferative effects were then assessed by CellTiter-Glo® Luminescent Cell Viability Assay (Promega™ cat #G7570) according to the manufacturer's standards, measuring luminescence using an EnVision® plate-reader. IC50 values were determined using a non-linear regression curve fit in GraphPad Prism 8. N=4 biological replicates were used for each treatment condition.
MOLT4 cells were plated in a 384-well plate at 5,000 cells per well in 50 μL media (RPMI+10% FBS+1% Penn/Strep) and treated with 0.1 μL of the candidate compounds in four-fold dilution series using the Janus pinner. Cells were incubated with compounds for 72 hours at 37° C. 5% CO2. Anti-proliferative effects of these compounds were assessed 72 hours after compound addition using CellTiter-Glo® (Promega, cat #G7571). All proliferation assays were performed in biological quadruplicate. […] Effects upon cell viability for compound 13 in the MOLT4 WT cells are therefore likely driven in part by Wee1 inhibition, and in part by CRBN-mediated Wee1 degradation. […] Degradation of Wee1 with compound 21 was mediated by VHL.

A further assay concerns MOLT4 cells. Description: Cell cycle analysis by propidium iodide staining. The conditions noted are these: 1 μM, 24 hours, MOLT4 cells. It is filed as cell-based. How it is done: MOLT4 cells were plated at 1.5 million cells per well in a 6-well plate, with 3 mL of media per well. Immediately after plating, cells were treated with the indicated concentrations of the indicated compound. At the indicated time points, cells were collected by transferring each well to a 15 mL conical, centrifuging (1000 rpm for 3 min), and then washing the cell pellet 3× with cold PBS. Cell pellets were then fixed with 1 mL cold 80% ethanol in PBS at 4° C. overnight. The cell pellets were then washed by adding 1 mL of PBS and then centrifuging (1500 rpm for 5 minutes), followed by aspiration of the PBS/ethanol mix. Cells were resuspended in cell cycle staining solution (100 μg/mL of RNAse A (Roche, 10109169001) and 50 μg/mL propidium iodide (Life Technologies™, P1304MP), diluted in PBS, and incubated for 10 minutes at room temperature. Cell cycle data was acquired by flow cytometry on a Guava® easyCyte™ flow cytometer (Millipore™) using the InCyte™ software. Data was analyzed using FlowJo®. N=3 biological replicates were used for each treatment condition.

T1 sequence (P30291 whole entry): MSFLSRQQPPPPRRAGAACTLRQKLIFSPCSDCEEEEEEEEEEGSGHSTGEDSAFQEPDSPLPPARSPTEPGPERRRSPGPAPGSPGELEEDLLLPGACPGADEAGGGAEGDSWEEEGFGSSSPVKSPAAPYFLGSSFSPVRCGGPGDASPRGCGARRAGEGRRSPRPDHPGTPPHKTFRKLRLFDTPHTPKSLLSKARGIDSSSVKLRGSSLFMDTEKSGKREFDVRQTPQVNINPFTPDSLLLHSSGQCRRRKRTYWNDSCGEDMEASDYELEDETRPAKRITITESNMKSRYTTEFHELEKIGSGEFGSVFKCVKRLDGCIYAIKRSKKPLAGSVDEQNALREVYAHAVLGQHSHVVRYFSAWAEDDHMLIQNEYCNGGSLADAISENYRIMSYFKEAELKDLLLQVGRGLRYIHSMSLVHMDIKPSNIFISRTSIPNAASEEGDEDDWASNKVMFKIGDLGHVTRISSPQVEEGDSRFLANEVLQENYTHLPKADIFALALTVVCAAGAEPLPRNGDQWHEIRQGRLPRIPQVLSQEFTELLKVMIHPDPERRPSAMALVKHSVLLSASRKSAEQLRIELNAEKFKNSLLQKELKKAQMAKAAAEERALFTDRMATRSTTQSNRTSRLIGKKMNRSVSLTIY

The IC50 is the point on the concentration scale where inhibition reaches its midpoint. Lower therefore signals inhibition by little substance. As for `C=CCn1c(=O)c2cnc(Nc3ccc(N4CCN(CCCNC(=O)CCOCCOCCNc5cccc6c5C(=O)N(C5CCC(=O)NC5=O)C6=O)CC4)cc3)nc2n1-c1cccc(C(C)(C)O)n1` (centres unmarked) [Compound 7, N-(3-(4-(4-((2-allyl-1-(6-(2-hydroxypropan-2-yl)pyridin-2-yl)-3-oxo-2,3-dihydro-1H-pyrazolo[3,4-d]pyrimidin-6-yl)amino)phenyl)piperazin-1-yl)propyl)-3-(2-(2-((2-(2,6-dioxopiperidin-3-yl)-1,3-dioxoisoindolin-4-yl)amino)ethoxy)ethoxy)propanamide], the IC50 at Wee1 [1] was 1 to 10 nM and 7.28 nM; against PLK1, 118 ± 6 nM. Moreover, at Wee1 [2] (5-hr treatment), the “Concentration required to achieve maximal Wee1 degradation” value turned out to be 1 µM. Moreover, the percent Wee1 degradation at 1 µM at Wee1 [3] is above 50%.
With `Nc1cccc2c1CN(C1CCC(=O)NC1=O)C2=O` (centres unmarked) [Lenalidomide, reference compound], the Antiproliferative activity result in assay [4] is “no detectable antiproliferative activity”. Besides, the “Effect on the cell cycle” value in the assay on MOLT4 cells is “did not induce any significant changes”.
For `C=CCn1c(=O)c2cnc(Nc3ccc(N4CCN(CCCCCCNc5cccc6c5C(=O)N(C5CCC(=O)NC5=O)C6=O)CC4)cc3)nc2n1-c1cccc(C(C)(C)O)n1` (centres unmarked) [Compound 11, 4-((6-(4-(4-((2-allyl-1-(6-(2-hydroxypropan-2-yl)pyridin-2-yl)-3-oxo-2,3-dihydro-1H-pyrazolo[3,4-d]pyrimidin-6-yl)amino)phenyl)piperazin-1-yl)hexyl)amino)-2-(2,6-dioxopiperidin-3-yl)isoindoline-1,3-dione], the concentration for half-maximal inhibition (IC50) on Wee1 [1] was 4.46 ± 0.95 nM; against PLK1 it was 23.6 ± 4 nM. At Wee1 [2] (5-hr exposure, 100 nM-10 μM), the Wee1 degradation result is recorded as “degraded Wee1”. Further, the percent Wee1 degradation at 1 µM at Wee1 [3] was 25 to 50%.
Take `C=CCn1c(=O)c2cnc(Nc3ccc(N4CCN(CCOCCOCCOCCNc5cccc6c5C(=O)N(C5CCC(=O)NC5=O)C6=O)CC4)cc3)nc2n1-c1cccc(C(C)(C)O)n1` (centres unmarked) [Compound 12, 4-((2-(2-(2-(2-(4-(4-((2-allyl-1-(6-(2-hydroxypropan-2-yl)pyridin-2-yl)-3-oxo-2,3-dihydro-1H-pyrazolo[3,4-d]pyrimidin-6-yl)amino)phenyl)piperazin-1-yl)ethoxy)ethoxy)ethoxy)ethyl)amino)-2-(2,6-dioxopiperidin-3-yl)isoindoline-1,3-dione]: the IC50 is 1 to 10 nM and 3.18 nM at Wee1 [1]; 285 ± 14 nM against PLK1. The “Concentration giving maximal (sufficient) Wee1 degradation” value on Wee1 [2] (5-hr treatment) was determined as 100 nM. The percent Wee1 degradation at 1 µM on Wee1 [3] was above 50%.
